Where “and” joins values, the source holds several entries; their conditions need not be identical. Equal entries are not always repeated.
Assays:
human serotonin 5-HT6R = target: T1, human serotonin 5-HT6R (Homo sapiens, UniProt P50406); test: Radioligand binding assay, 5-HT6R, [3H]-LSD displacement; conditions: for Ki: human receptor stably expressed in HEK-293 cells, mean of at least two independent experiments, read-out: Ki 5-HT6 [3H]-LSD
T1 construct: expressed in transfected cells; host or cells: HEK-293
Description: Five selective radioligands were employed (Table 1).
Radioligand binding assays were used to determine the affinity of the synthesized compounds for human serotonin 5-HT6R, which were stably expressed in HEK-293 cells. […] Each compound was tested in triplicate at 7 to 8 different concentrations (10^−11 to 10^−4 M). The inhibition constants (Ki) were calculated using the Cheng–Prusoff equation [40], and the results are expressed as the mean of at least two independent experiments.

dopaminergic D2LR = target: T2, dopaminergic D2LR (Homo sapiens, UniProt P14416); test: Radioligand binding assay, D2LR, [3H]-Raclopride; conditions: human D2L receptor stably expressed in HEK-293 cells; read-out: Ki D2 [3H]-Raclopride
T2 construct: expressed in transfected cells; host or cells: HEK-293

5-HT1A = target: T3, 5-HT1A (Homo sapiens, UniProt P08908); test: Radioligand binding assay, 5-HT1A, [3H]-8-OH-DPAT; conditions: human receptor stably expressed in HEK-293 cells
T3 construct: expressed in transfected cells; host or cells: HEK-293
T3 sequence (P08908 1-422): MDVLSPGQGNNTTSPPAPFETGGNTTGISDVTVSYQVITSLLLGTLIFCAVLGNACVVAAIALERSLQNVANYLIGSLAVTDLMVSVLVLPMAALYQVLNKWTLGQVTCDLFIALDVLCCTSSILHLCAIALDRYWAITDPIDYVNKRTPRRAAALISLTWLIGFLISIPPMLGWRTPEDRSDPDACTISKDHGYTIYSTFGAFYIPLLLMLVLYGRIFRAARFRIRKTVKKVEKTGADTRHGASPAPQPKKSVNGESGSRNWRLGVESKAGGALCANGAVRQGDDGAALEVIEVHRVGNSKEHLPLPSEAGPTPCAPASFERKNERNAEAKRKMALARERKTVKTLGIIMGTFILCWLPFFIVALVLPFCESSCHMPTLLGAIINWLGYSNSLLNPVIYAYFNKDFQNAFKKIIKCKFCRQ

5-HT2A = target: T4, 5-HT2A (Homo sapiens, UniProt P28223); test: Radioligand binding assay, 5-HT2A, [3H]-Ketanserin; conditions: human receptor stably expressed in HEK-293 cells
T4 construct: expressed in transfected cells; host or cells: HEK-293

5-HT7bR = target: T5, 5-HT7bR (Homo sapiens, UniProt P34969); test: Radioligand binding assay, 5-HT7bR, [3H]-5-CT; conditions: human 5-HT7b receptor stably expressed in HEK-293 cells; read-out: Ki 5-HT7 [3H]-5-CT
T5 construct: expressed in transfected cells; host or cells: HEK-293

Lipophilicity by RP-TLC = type: physicochemical; conditions: RP-18 TLC, water/methanol, extrapolated to 100% water
Description: For comparison, the active arylmethyl-triazine compounds previously found (1–3) were also examined. Stationary phase RP-18 and mixtures of water/methanol […] as a mobile phase were employed. RM values were calculated from the RF data obtained. […] The regression coefficients (r^2) determined for all compounds were higher than 0.95. On the basis of the linear relationship between RM values and the volume fraction of methanol, values of RM0 in the systems analyzed corresponding to 100% of water were obtained by extrapolation. RM0 values received for the compounds tested ranged from 3.14 to 4.49 (Figure 6).
The mobile phases were prepared by mixing the respective amounts of water and organic modifier (methanol) in a range from 40 to 90% (v/v) in 5% increments. TLC was performed on Silica gel 60RP-18 F254 plates (7 × 10 cm) plates (Merck, Darmstadt, Germany). Methanol was used to prepare the solutions of the substances. Solutions (10 µL) of the analyzed compounds were applied to the plates as 5 mm bands, 10 mm apart and 10 mm from the lower edge and sides of the plates, by using Linomat V applicator (Camag, Basel, Switzerland). The vertical chamber (Sigma–Aldrich, St. Louis, MI, USA), 20 × 10 × 18 cm in size, was saturated with mobile phase for 20 min. Development was carried out over 9 cm from the starting line at a temperature of 20 °C. Next, the plates were dried at room temperature, and the spots were observed under ultraviolet light at 254 nm and/or 366 nm (UV lamp, Camag, Basel, Switzerland). In each case, sharp and symmetric spots without a tendency for tailing were obtained. Each experiment was run in triplicate and mean RF (retardation factor) values were calculated.
Starting from the RF values, the RM parameters were computed as described in the formula:RM = log(1/RF − 1)
The linear correlations between the RM values of the substances and the concentration of methanol in mobile phases were calculated for each compound with the Soczewiński-Wachtmeister equation [22]:RM = RM0 + aC where C is the concentration of the organic modifier (in %) in the mobile phase, a is the slope, and RM0 is the […].

[1] = Body weight of non-obese rats fed palatable diet (model of excessive eating); type: in vivo, rat
From the text: In order to determine the anorectic activity of 6 or 26, the model of excessive eating was used. Male Wistar rats (170–190 g) were housed in a pair in plastic cages in constant temperature facilities exposed to a light-dark cycle. Water and food were available ad libitum. Two groups of 6 rats were fed with diets consisting of milk chocolate with nuts, cheese, salted peanuts, and 7% condensed milk and also had access to standard feed (Labofeed B, Morawski Manufacturer Feed, Kcynia, Poland) and water ad libitum for 3 weeks. Palatable control group (palatable diet + vehicle) received vehicle (1% Tween 80, intraperitoneally), while palatable test group (palatable diet + 6 or palatable + 26) was injected (intraperitoneally) with 6 or 26 at the dose of 5 mg/kg b.w. dissolved in 1% Tween 80 (1 mL/kg). Body weights were measured daily, immediately prior to administration of drugs.
The palatable diet contained: 100 g peanuts—614 kcal; 100 mL condensed milk—131 kcal; 100 g milk chocolate—529 kcal; 100g cheese (Greek type)—270 kcal. The standard diet contained 100 g feed—280 kcal.

[2] = Body weight of non-obese rats fed only standard diet; type: in vivo, rat; conditions: rats consuming standard feed, 5 mg/kg b.w. i.p.
Description: Male Wistar rats (170–190 g) were housed in a pair in plastic cages in constant temperature facilities exposed to a light-dark cycle. Control group (standard diet + vehicle) received vehicle (1% Tween 80, intraperitoneally), while the test group (standard diet + 6 or standard diet + 26) was injected (intraperitoneally) with 6 or 26 at the dose of 5 mg/kg b.w. dissolved in 1% Tween 80 (1 mL/kg). Body weights were measured daily immediately prior to administration of drugs.

HEK-293 cells = test: Toxicity in vitro, MTS test; type: cell-based; conditions: 72 h
Description: The preliminary evaluation of the safety profile for the most promising 5-HT6R ligands 6 and 26 was performed in vitro with the HEK-293 eukaryotic cell line. The compounds examined were dissolved in culture growth media and incubated with cells for 72 h. Next, the MTS test was applied to determine the viability of the cells. […] The reference cytostatic drug doxorubicin (DX) at the very low concentration 1 μM was also cytotoxic.
The ATCC CRL 1573 HEK-293 cells were seeded in 96-well plates (NuncTM) at a concentration of 1 × 10^4 cells/well in 200 μL in Dulbecco’s Modified Eagle’s Medium (Gibco®) supplemented with 10% fetal bovine serum (Gibco®), and cultured at 37 °C in an atmosphere containing 5% of CO2 for 24 h to reach 60% confluence. The 10 mM stock solutions of 5-HT6R ligands 6 and 26 in DMSO were diluted into fresh growth medium and added into the microplates at the final concentrations 0.1 μM –100 μM. […] The cytostatic drug doxorubicin (Sigma-Aldrich) at the concentration 1 μM was used as a reference. After 72 h of incubation 20 μL of CellTiter 96® AQueous Non-Radioactive Cell Proliferation Assay (MTS) (Promega®) was added to each well and the cells were incubated under the same conditions for 2 h. The absorbance of the samples was measured using a microplate reader EnSpire (PerkinElmer, Waltham, MA, USA) at 490 nm. Statistical significance was analyzed by GraphPad Prism™ software v. 5.01 (GraphPad Software, La Jolla, CA, USA) using One-way ANOVA and Bonferroni’s Multiple Comparison Post Test.

T5 sequence (P34969 1-432 limits assumed): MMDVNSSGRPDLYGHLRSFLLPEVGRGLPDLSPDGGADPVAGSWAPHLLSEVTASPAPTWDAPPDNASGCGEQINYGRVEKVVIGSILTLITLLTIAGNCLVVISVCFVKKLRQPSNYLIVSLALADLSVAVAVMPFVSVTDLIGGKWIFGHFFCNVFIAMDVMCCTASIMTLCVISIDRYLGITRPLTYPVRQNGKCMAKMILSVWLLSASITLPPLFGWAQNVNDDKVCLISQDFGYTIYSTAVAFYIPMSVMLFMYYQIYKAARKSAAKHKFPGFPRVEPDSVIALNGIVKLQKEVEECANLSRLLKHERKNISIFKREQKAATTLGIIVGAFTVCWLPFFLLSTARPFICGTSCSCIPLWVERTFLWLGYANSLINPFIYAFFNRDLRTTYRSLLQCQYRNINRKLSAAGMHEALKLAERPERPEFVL
T2 sequence (P14416 whole entry): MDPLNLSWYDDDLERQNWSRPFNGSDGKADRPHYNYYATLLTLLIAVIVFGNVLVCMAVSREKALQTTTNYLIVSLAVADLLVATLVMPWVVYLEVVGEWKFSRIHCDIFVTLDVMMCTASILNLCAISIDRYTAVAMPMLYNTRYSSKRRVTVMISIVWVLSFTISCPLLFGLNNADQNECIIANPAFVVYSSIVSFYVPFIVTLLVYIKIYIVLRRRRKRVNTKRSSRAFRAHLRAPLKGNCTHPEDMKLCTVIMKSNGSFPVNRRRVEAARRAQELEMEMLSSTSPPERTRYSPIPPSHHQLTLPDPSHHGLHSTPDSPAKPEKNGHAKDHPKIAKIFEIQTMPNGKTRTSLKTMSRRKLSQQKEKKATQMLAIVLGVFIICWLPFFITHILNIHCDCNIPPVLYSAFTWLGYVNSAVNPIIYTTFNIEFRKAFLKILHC
T4 sequence (P28223 whole entry): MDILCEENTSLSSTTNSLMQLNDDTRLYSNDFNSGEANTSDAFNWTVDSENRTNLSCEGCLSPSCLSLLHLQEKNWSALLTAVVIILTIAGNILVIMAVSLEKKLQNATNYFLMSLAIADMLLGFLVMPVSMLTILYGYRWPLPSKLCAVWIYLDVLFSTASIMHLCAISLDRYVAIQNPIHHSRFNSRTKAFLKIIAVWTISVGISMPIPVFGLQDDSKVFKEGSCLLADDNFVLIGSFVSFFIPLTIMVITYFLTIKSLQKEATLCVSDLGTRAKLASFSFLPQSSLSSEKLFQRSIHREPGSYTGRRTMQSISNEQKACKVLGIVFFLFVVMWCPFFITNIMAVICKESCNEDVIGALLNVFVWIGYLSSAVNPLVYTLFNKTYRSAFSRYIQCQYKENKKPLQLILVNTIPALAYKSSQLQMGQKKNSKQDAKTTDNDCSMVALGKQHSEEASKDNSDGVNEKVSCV
T1 sequence (P50406 whole entry): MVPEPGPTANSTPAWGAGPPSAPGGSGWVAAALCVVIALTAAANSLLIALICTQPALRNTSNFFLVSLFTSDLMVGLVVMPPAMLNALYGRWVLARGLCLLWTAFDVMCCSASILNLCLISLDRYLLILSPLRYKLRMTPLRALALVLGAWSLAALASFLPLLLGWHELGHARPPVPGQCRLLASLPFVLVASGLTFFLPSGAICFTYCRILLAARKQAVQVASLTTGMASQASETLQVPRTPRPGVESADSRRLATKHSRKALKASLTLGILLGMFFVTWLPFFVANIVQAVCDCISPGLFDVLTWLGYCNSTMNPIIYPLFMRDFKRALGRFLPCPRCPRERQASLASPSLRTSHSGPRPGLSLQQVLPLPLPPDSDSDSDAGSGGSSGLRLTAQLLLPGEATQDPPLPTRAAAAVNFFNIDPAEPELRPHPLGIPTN

Row | Structure (SMILES) | selectivity in words (human serotonin 5-HT6R; 5-HT6R vs competitive GPCRs tested) | Ki (human serotonin 5-HT6R) | Ki (dopaminergic D2LR) [µM] | Ki (5-HT1A) [µM] | Ki (5-HT2A) [µM] | Ki (5-HT7bR) [µM] | RM0 (Lipophilicity by RP-TLC) | day of experiment from which groups differed significantly ([1]; rats fed palatable feed, 5 mg/kg b.w. i.p. daily) [days] | weight gain vs control group ([1]; rats fed palatable feed, 5 mg/kg b.w. i.p., 21 days) | body weight vs control animals fed standard feed ([1]; treated rats with access to preferential feed, 5 mg/kg b.w. i.p.) | effect on body weight [2] | toxicity in HEK-293 cells (HEK-293 cells; 0.1 μM–100 μM) | viability of HEK-293 cells (HEK-293 cells; 100 μM, *** p < 0.001) | viability of HEK-293 cells (HEK-293 cells; 1 μM)
1 | CN1CCN(c2nc(N)nc(CN3C(=O)NC(C)(c4cccc5ccccc45)C3=O)n2)CC1 (stereo not drawn) [Compound 25, 3-((4-Amino-6-(4-methylpiperazin-1-yl)-1,3,5-triazin-2-yl)methyl)-5-methyl-5-(naphthalen-1-yl)imidazolidine-2,4-dione] | highly selective | < 0.2 µM and 0.121 µM | 7.81 | 7.15 | 8.08 | 3.37 | 4.16 |  |  |  |  |  |  | 
2 | CN1CCN(c2nc(N)nc(CN3C(=O)N(Cc4ccc(Cl)cc4)C(C)(C)C3=O)n2)CC1 [Compound 6, 1-(4-Chlorobenzyl)-3-((4-amino-6-(4-methylpiperazin-1-yl)-1,3,5-triazin-2-yl)methyl)-5,5-dimethylimidazolidine-2,4-dione] |  | < 0.2 µM and 0.127 µM | 4.1 | 23.3 |  | 3.71 | 3.39 | 16 | significantly less weight gain | differed significantly | No effects on body weight | low | statistically significant decrease of viability | 
3 | CN1CCN(c2nc(N)nc(CN3C(=O)N(Cc4ccc5ccccc5c4)C(C)(C)C3=O)n2)CC1 [Compound 18] |  | < 0.2 µM and 0.182 µM | 0.888 | 5.72 | 1.91 | 1.53 | 4.04 |  |  |  |  |  |  | 
4 | CN1CCN(c2nc(N)nc(CN3C(=O)NC(C)(c4ccc(Cl)cc4)C3=O)n2)CC1 (stereo not drawn) [Compound 7, 3-((4-Amino-6-(4-methylpiperazin-1-yl)-1,3,5-triazin-2-yl)methyl)-5-(4-chlorophenyl)-5-methylimidazolidine-2,4-dione] |  | < 0.2 µM and 0.176 µM | 31.2 | 28.1 |  | 0.938 | 3.51 |  |  |  |  |  |  | 
5 | COc1cccc2c1C(=O)c1c(O)c3c(c(O)c1C2=O)C[C@@](O)(C(=O)CO)C[C@@H]3O[C@H]1C[C@H](N)[C@H](O)[C@H](C)O1 [doxorubicin, reference compound] |  |  |  |  |  |  |  |  |  |  |  |  |  | cytotoxic
6 | CN1CCN(c2nc(N)nc(CN3C(=O)NC(C)(c4ccc(Cl)c(Cl)c4Cl)C3=O)n2)CC1 (stereo not drawn) [Compound 23, 3-((4-Amino-6-(4-methylpiperazin-1-yl)-1,3,5-triazin-2-yl)methyl)-5-(2,3,4-trichlorophenyl)-5-methylimidazolidine-2,4-dione] |  | < 0.2 µM and 0.195 µM | 4.74 | 6.03 | 3.43 | 8.9 | 4.49 |  |  |  |  |  |  | 

Reference: article PMC6222450, “Computer-Aided Studies for Novel Arylhydantoin 1,3,5-Triazine Derivatives as 5-HT6 Serotonin Receptor Ligands with Antidepressive-Like, Anxiolytic and Antiobesity Action In Vivo” (Molecules : A Journal of Synthetic Chemistry and Natural …, 2018)
